The nature of data set [1]: Protein binding in microsomal incubations (HLM). The class given is in vitro ADME, human. As for the experimental part: (§1) For a better understanding of the microsomal stability data, the protein binding for 7a, 7d and 7e in microsomal incubations was measured. The percentage of 7a unbound in MLM and HLM was determined as 6.71 and 4.89, respectively. Compounds 7d and 7e were more highly bound: for 7d the percentage unbound was 0.50 in both MLM and HLM and for 7e was 0.16 and 0.10, respectively. […] The potent cell-based activity prompted us to investigate kinome selectivity profiles for this class of compound by screening 7a and 7d in a 102-kinase panel at a concentration of 1 μM.[20] […] The Gini coefficient for compound 3 was reported as 0.719,[12] and the corresponding value for compound 1 is 0.560. To understand the potential for further improvement, we obtained the crystal structure of 7a bound to Aurora-A[22] (Fig. 3, Table S3, Supplementary data). […] Similar to crystal structures of previous compounds 1, 15 and 16 (Figs. 1 and 2; compounds 51 and 40c in Ref. [10], and compound 21a in Ref. [11], respectively) the N-benzyl substituent on the C7-pyrazole is oriented towards the P-loop, making Van der Waals contacts with Val147 and Gly142 (Fig. 3).

Data set [2] is described as follows: Mouse liver microsomal stability. In kind it is in vitro ADME. The conditions noted are these: percentage of compound metabolised after a 30 min incubation, mouse liver microsomes. As for the experimental part: (§2) [18] MLM and HLM microsomal stabilities were determined as described in Ref. [12].
Background: Liver microsomes are a subcellular fraction often used to study metabolism.

A further data set addresses Aurora B (Homo sapiens, UniProt Q96GD4). Kind of data set: Aurora-B microfluidic kinase assay. Conditions: biochemical; mean of two determinations or mean ±SD for n > 2. The text has this: (§3) As part of our medicinal chemistry programme to discover selective inhibitors of Aurora-A,[12] we introduced the 1-benzyl-1H-pyrazol-4-yl moiety at C7 of the imidazo[4,5-b]pyridine scaffold to provide 7a (Table 1). We previously reported 1,3-dimethyl-1H-pyrazol-4-yl as a preferred substituent at the C2 position of the imidazo[4,5-b]pyridine scaffold[11] and this moiety was therefore incorporated into the design of 7a and analogues presented in this study. […] This in vitro profile prompted us to investigate this C7-pyrazole substituted imidazo[4,5-b]pyridine subseries in more detail. Firstly, we attempted to increase biochemical potency against Aurora-A, and also to improve microsomal stability.
(§4) [17] Aurora-A and Aurora-B IC50 values were determined by using a microfluidic assay which monitors the separation of a phosphorylated product from its substrate, as described in Ref. [12].

Data set [3] can be described thus: Human liver microsomal stability. In kind it is in vitro ADME. The conditions noted are these: percentage of compound metabolised after a 30 min incubation, human liver microsomes. The method, then: as §2
The target of a further data set is T1, Aurora A (Homo sapiens, UniProt O14965).
T1 sequence (O14965 1-403): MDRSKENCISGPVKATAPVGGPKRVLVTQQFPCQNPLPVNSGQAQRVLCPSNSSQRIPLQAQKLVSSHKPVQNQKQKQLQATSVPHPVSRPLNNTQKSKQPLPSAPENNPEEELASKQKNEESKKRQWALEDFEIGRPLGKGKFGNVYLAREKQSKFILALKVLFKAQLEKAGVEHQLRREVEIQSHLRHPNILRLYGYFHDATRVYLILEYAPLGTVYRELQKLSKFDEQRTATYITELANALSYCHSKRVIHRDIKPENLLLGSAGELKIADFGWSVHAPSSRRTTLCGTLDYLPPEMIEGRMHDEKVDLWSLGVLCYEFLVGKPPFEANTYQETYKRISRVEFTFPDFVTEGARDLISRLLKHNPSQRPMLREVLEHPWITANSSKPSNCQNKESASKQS
Kind of data set: Aurora-A microfluidic kinase assay. In kind it is biochemical. Conditions: for pIC50: biochemical, mean of two determinations or mean ±SD for n > 2; for fold more potent on Aurora-A relative to Aurora-B: ratio of biochemical IC50s.
From the text: as §3, §4

A short description of data set [4]: Protein binding in microsomal incubations (MLM). The class given is in vitro ADME, mouse. The method, then: as §1

pIC50: −log10 of the molar value. Where “and” joins values, the source holds several entries; their conditions need not be identical. Identical values can stand only once. Bounds are passed on as bounds.

Sequence of Aurora B (Q96GD4 whole entry): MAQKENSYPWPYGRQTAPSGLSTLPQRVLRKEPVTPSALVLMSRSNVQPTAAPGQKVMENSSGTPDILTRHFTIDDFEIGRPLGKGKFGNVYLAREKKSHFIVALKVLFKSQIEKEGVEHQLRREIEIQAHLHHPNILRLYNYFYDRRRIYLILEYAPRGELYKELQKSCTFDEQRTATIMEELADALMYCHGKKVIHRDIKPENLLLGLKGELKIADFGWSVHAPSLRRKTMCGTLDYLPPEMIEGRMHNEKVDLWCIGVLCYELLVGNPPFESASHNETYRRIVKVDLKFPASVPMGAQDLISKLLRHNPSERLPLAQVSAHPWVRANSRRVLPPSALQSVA

Turning to `Cc1nn(C)cc1-c1nc2c(-c3cnn(-c4ccc(F)cc4)c3)c(Cl)cnc2[nH]1` [Compound 7e], in data set [1], the “percentage unbound in HLM” value amounted to 0.10%. For the same compound, the “MLM % met/30 min” value in data set [2] worked out at 31%. Also, the pIC50 against Aurora B and at Aurora A was below 5.00 in each case. Also, in data set [3], the “HLM % met/30 min” value is reported as 20%. For the same compound, in data set [4], the “percentage unbound in MLM” value worked out at 0.16%.

On to `Cc1nn(C)cc1-c1nc2c(-c3cnn(Cc4cccc(C(=O)N(C)C)c4)c3)c(Cl)cnc2[nH]1` [Compound 14a], for which, in data set [2], the “MLM % met/30 min” value is recorded as 72/72%. For the same compound, the figures for the pIC50 on Aurora B and against Aurora A were 6.53 and 7.44, respectively. In data set [3], the “HLM % met/30 min” value was 72% and 72/72%. On Aurora A, the “fold more potent on Aurora-A relative to Aurora-B” value amounted to 8 fold.

Consider `Cc1nn(C)cc1-c1nc2c(-c3cnn(Cc4cccc(C(=O)N5CCN(C)CC5)c4)c3)c(Cl)cnc2[nH]1` [Compound 14b], for which, in data set [2], the “MLM % met/30 min” value stood at 97%. The compound also showed a pIC50 at Aurora B of 6.63. The “HLM % met/30 min” value in data set [3] is reported as 87%. At Aurora A, the pIC50 is 7.34 and the “fold more potent on Aurora-A relative to Aurora-B” value is reported as 5 fold.

Consider `Cc1nn(C)cc1-c1nc2c(-c3cnn(Cc4ccccc4C(=O)N4CCN(C)CC4)c3)c(Cl)cnc2[nH]1` [Compound 14c], for which the “MLM % met/30 min” value in data set [2] is listed as 98%. Besides, the pIC50 against Aurora B is 6.45; on Aurora A it was 6.90. Further, the “HLM % met/30 min” value in data set [3] was determined as 82%.

The term pIC50 denotes the IC50 on a negative log10 scale, so that one unit is a factor of ten. A higher pIC50 goes with a low IC50.

Source of the values: publication PMC4577729, “7-(Pyrazol-4-yl)-3H-imidazo[4,5-b]pyridine-based derivatives for kinase inhibition: Co-crystallisation studies with Aurora-A reveal distinct differences in the orientation of the pyrazole N1-substituent” (Bioorganic & Medicinal Chemistry Letters, 2015).
